Experimental data as given in article PMC5820170 (Molecular cancer therapeutics, 2015).

Target: Mammalian Ste20-like kinase 4 (MST4) (Homo sapiens, UniProt Q9P289)
Assay type: biochemical

Mammalian Ste20-like kinase 4 (MST4), sequence (Q9P289 whole entry): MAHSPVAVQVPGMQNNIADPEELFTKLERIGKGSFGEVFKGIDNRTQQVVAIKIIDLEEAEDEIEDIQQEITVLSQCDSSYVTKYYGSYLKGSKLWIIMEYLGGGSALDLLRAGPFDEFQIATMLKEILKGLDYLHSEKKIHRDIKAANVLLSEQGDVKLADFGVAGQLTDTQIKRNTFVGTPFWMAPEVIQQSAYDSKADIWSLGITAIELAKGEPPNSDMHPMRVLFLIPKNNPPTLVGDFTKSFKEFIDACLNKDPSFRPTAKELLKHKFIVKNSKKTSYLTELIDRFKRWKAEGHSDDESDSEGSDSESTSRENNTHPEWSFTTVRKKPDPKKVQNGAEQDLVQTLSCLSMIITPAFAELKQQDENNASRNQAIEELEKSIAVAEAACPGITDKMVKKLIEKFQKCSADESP

IC50: 6.18 ± 2.2 nM
SMILES: CCS(=O)(=O)Nc1ccc2c(c1)/C(=C(/Nc1ccc(CN3CCCCC3)cc1)c1ccccc1)C(=O)N2 [Hesperadin]
